In patent US20220363689A1, “INHIBITOR OF BTK AND MUTANTS THEREOF” (Newave Pharmaceutical Inc., priority 2019, published 2022):

What was measured:
Format in all cases: biochemical
[1] = biological target: C481S Btk (Homo sapiens, UniProt Q06187, C481S); test: Caliper-based kinase assay, C481S BTK; settings: 0.5 nM enzyme, ATP 16 μM, room temperature 3 h; read-out: C481S BTK IC50 (nM) (reversible inhibition)
Procedure: (§1) A Caliper-based kinase assay (Caliper Life Sciences, Hopkinton, Mass.) was used to measure inhibition of WT and […] Btk kinase activity of a compound of the present disclosure. […] The reaction was then terminated with EDTA, final concentration 20 mM and the phosphorylated reaction product was quantified on a Caliper Desktop Profiler (Caliper LabChip 3000).

[2] = biological target: T1, WT BTK (Homo sapiens, UniProt Q06187); test: Caliper-based kinase assay, WT BTK; settings: 0.5 nM enzyme, ATP 16 μM, room temperature 3 h; read-out: WT BTK IC50 (nM) (irreversible inhibition)
T1 sequence (Q06187 whole entry): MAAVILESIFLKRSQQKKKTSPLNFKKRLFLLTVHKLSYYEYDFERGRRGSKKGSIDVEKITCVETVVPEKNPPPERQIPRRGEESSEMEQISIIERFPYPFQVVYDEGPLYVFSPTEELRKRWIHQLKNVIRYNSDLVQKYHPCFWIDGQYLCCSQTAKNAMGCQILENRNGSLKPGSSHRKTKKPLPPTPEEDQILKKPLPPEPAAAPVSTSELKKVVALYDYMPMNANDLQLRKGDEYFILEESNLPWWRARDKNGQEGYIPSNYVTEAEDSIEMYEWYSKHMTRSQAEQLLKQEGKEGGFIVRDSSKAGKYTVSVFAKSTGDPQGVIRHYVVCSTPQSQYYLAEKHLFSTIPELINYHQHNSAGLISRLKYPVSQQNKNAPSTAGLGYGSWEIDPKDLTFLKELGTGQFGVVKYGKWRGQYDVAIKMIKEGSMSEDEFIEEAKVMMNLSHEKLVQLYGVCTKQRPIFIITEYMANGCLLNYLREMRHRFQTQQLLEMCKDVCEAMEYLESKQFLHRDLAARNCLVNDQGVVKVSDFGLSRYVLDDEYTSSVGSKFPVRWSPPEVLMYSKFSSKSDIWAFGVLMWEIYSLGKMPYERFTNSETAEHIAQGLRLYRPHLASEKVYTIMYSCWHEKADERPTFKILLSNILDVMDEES
Procedure: as §1

[3] = biological target: T1, WT BTK; test: In vitro dialysis assay (irreversibility assay), WT BTK; settings: reversible or irreversible/covalent inhibition after 24 h dialysis
Procedure: The compound-enzyme complex was dialyzed against the same buffer supplemented with 40 mM ATP for 24 hr. Cumulative dialysis factor>160,000×. After dialysis, the BTK activity was measured in the presence […] and 1 mM substrate peptide and compared to that in non-dialyzed samples. Assay buffer: 100 mM HEPES, pH7.5; […]; 5 mM MgCl2; 1 mM DTT. In this study, Ibrutiib (a FDA approved irreversible BTK inhibitor) was used as a positive control and Saurosporine (a reversible BTK inhibitor) was used as a negative control.

Sequence of C481S Btk (Q06187 whole entry C481S): as the sequence (Q06187 whole entry) above, with C481S counted along it

Structure (SMILES) | IC50 [1] [nM] | IC50 [2] [nM] | Conclusion (WT BTK) [3]
C=CC(=O)Nc1cc(Nc2nc(-c3ccnc(N4CCn5c(cc6c5CC(C)(C)C6)C4=O)c3C)cn(C)c2=O)ccc1N1CCC(N2CCOCC2)CC1.Cl [Example 18, N-(5-[[6-(2-[4,4-dimethyl-9-oxo-1,10-diazatricyclo[6.4.0.0^[2,6]]dodeca-2(6),7-dien-10-yl]-3-methylpyridin-4-yl)-4-methyl-3-oxopyrazin-2-yl]amino]-2-[4-(morpholin-4-yl)piperidin-1-yl]phenyl)prop-2-enamide hydrochloride] | 11.4 | 0.18 | Irreversible/covalent inhibition
C=CC(=O)Nc1cc(Nc2nc(-c3ccnc(N4CCn5c(cc6c5CC(C)(C)C6)C4=O)c3C)cn(C)c2=O)ccc1N1CCC(N2CCOCC2)CC1C [Example 17, N-(5-[[6-(2-[4,4-dimethyl-9-oxo-1,10-diazatricyclo[6.4.0.0^[2,6]]dodeca-2(6),7-dien-10-yl]-3-methylpyridin-4-yl)-4-methyl-3-oxopyrazin-2-yl]amino]-2-[(2S)-2-methyl-4-(morpholin-4-yl)piperidin-1-yl]phenyl)prop-2-enamide] | 7.1 | 0.1 | Irreversible/covalent inhibition
C=CC(=O)Nc1cc(Nc2nc(-c3ccnc(N4CCn5c(cc6c5CC(C)(C)C6)C4=O)c3CO)cn(C)c2=O)ccc1N1CCN(C2COC2)C[C@@H]1C [Example 3, (S)—N-(5-((6-(2-(7,7-dimethyl-1-oxo-1,3,4,6,7,8-hexahydro-2H-cyclopenta[4,5]pyrrolo[1,2-a]pyrazin-2-yl)-3-(hydroxymethyl)pyridin-4-yl)-4-methyl-3-oxo-3,4-dihydropyrazin-2-yl)amino)-2-(2-methyl-4-(oxetan-3-yl)piperazin-1-yl)phenyl)acrylamide] | 0.72 | 0.14 | Irreversible/covalent inhibition
C=CC(=O)Nc1cc(Nc2nc(-c3ccnc(N4CCn5c(cc6c5CC(C)(C)C6)C4=O)c3C)cn(C)c2=O)ccc1N1CCN(C2COC2)C[C@@H]1C [Example 11, (S)—N-(5-((6-(2-(7,7-dimethyl-1-oxo-1,3,4,6,7,8-hexahydro-2H-cyclopenta[4,5]pyrrolo[1,2-a]pyrazin-2-yl)-3-methylpyridin-4-yl)-4-methyl-3-oxo-3,4-dihydropyrazin-2-yl)amino)-2-(2-methyl-4-(oxetan-3-yl)piperazin-1-yl)phenyl)acrylamide] | 15.9 | 0.25 | Irreversible/covalent inhibition
C=CC(=O)Nc1cc(Nc2nc(-c3ccnc(N4CCn5c(cc6c5CC(C)(C)C6)C4=O)c3CO)cn(C)c2=O)ccc1N1CCN(C2CCOCC2)C[C@@H]1C [Example 22, N-(5-[[6-(2-[4,4-dimethyl-9-oxo-1,10-diazatricyclo[6.4.0.0^[2,6]]dodeca-2(6),7-dien-10-yl]-3-(hydroxymethyl)pyridin-4-yl)-4-methyl-3-oxopyrazin-2-yl]amino]-2-[(2S)-2-methyl-4-(oxan-4-yl)piperazin-1-yl]phenyl)prop-2-enamide] | 0.48 | 0.046 | Irreversible/covalent inhibition
C=CC(=O)Nc1cc(Nc2nc(-c3ccnc(N4CCn5c(cc6c5CC(C)(C)C6)C4=O)c3CO)cn(C)c2=O)ccc1N1CCC(N2CCC(F)(F)CC2)CC1 [Example 20, N-(2-[4,4-difluoro-[1,4′-bipiperidin]-1′-yl]-5-[[6-(2-[4,4-dimethyl-9-oxo-1,10-diazatricyclo[6.4.0.0^[2,6]]dodeca-2(6),7-dien-10-yl]-3-(hydroxymethyl)pyridin-4-yl)-4-methyl-3-oxopyrazin-2-yl]amino]phenyl)prop-2-enamide] | 0.4 | 0.053 | Irreversible/covalent inhibition
C=CC(=O)Nc1cc(Nc2nc(-c3ccnc(N4CCn5c(cc6c5CC(C)(C)C6)C4=O)c3CO)cn(C)c2=O)ccc1N1CCC(N2CCOCC2)CC1C (stereo not drawn) [Example 12, N-(5-((6-(2-(7,7-dimethyl-1-oxo-1,3,4,6,7,8-hexahydro-2H-cyclopenta[4,5]pyrrolo[1,2-a]pyrazin-2-yl)-3-(hydroxymethyl)pyridin-4-yl)-4-methyl-3-oxo-3,4-dihydropyrazin-2-yl)amino)-2-(2-methyl-4-morpholinopiperidin-1-yl)phenyl)acrylamide] | 0.25 | 0.046 | Irreversible/covalent inhibition

More lines, now with the values ahead:

IC50 [1] [nM] | IC50 [2] [nM] | Conclusion (WT BTK) [3] | Structure (SMILES)
1.1 | 0.1 | Irreversible/covalent inhibition | C=CC(=O)Nc1cc(Nc2nc(-c3ccnc(N4CCc5c(sc6c5CCCC6)C4=O)c3CO)cn(C)c2=O)ccc1N1CCN(C2COC2)C[C@@H]1C [Example 36, N-[5-([6-[3-(hydroxymethyl)-2-[6-oxo-8-thia-5-azatricyclo[7.4.0.0^[2,7]]trideca-1(9),2(7)-dien-5-yl]pyridin-4-yl]-4-methyl-3-oxopyrazin-2-yl]amino)-2-[(2S)-2-methyl-4-(oxetan-3-yl)piperazin-1-yl]phenyl]prop-2-enamide]
0.5 | 0.35 | Irreversible/covalent inhibition | C=CC(=O)Nc1cc(Nc2nc(-c3ccnc(N4CCn5c(cc6c5CC(C)(C)C6)C4=O)c3CO)cn(C)c2=O)ccc1C1CN(C)C(=O)CN1C1COC1 (stereo not drawn) [Example 43]
17.9 | 0.13 | Irreversible/covalent inhibition | C=CC(=O)Nc1cc(Nc2nc(-c3ccnc(N4CCc5c(sc6c5CCC6(C)C)C4=O)c3CO)cn(C)c2=O)ccc1N1CCN(C2COC2)C[C@@H]1C [Example 35, N-(5-[[6-(2-[5,5-dimethyl-9-oxo-7-thia-10-azatricyclo[6.4.0.0^[2,6]]dodeca-1(8),2(6)-dien-10-yl]-3-(hydroxymethyl)pyridin-4-yl)-4-methyl-3-oxopyrazin-2-yl]amino]-2-[(2S)-2-methyl-4-(oxetan-3-yl)piperazin-1-yl]phenyl)prop-2-enamide]
0.32 | 0.076 | Irreversible/covalent inhibition | C=CC(=O)Nc1cc(Nc2nc(-c3ccnc(N4CCCn5c(cc6c5CC(C)(C)C6)C4=O)c3CO)cn(C)c2=O)ccc1N1CCN(C2COC2)C[C@@H]1C [Example 29, N-(5-[[6-(2-[4,4-dimethyl-9-oxo-1,10-diazatricyclo[6.5.0.0^[2,6]]trideca-2(6),7-dien-10-yl]-3-(hydroxymethyl)pyridin-4-yl)-4-methyl-3-oxopyrazin-2-yl]amino]-2-[(2S)-2-methyl-4-(oxetan-3-yl)piperazin-1-yl]phenyl)prop-2-enamide]
0.49 | 0.048 | Irreversible/covalent inhibition | C=CC(=O)Nc1cc(Nc2nc(-c3ccnc(N4CCn5c(cc6c5CC(C)(C)C6)C4=O)c3CO)cn(C)c2=O)ccc1N1CCN(C2CCC(F)(F)CC2)C[C@@H]1C [Example 23, N-[2-[(2S)-4-(4,4-difluorocyclohexyl)-2-methylpiperazin-1-yl]-5-[[6-(2-[4,4-dimethyl-9-oxo-1,10-diazatricyclo[6.4.0.0^[2,6]]dodeca-2(6),7-dien-10-yl]-3-(hydroxymethyl)pyridin-4-yl)-4-methyl-3-oxopyrazin-2-yl]amino]phenyl]prop-2-enamide]
0.26 | 0.073 | Irreversible/covalent inhibition | C=CC(=O)Nc1cc(Nc2nc(-c3ccnc(N4CCCn5c(cc6c5CC(C)(C)C6)C4=O)c3CO)cn(C)c2=O)ccc1N1CCN([C@H]2C[C@@H](C)O[C@@H](C)C2)C[C@@H]1C [Example 38, N-(5-[[6-(2-[4,4-dimethyl-9-oxo-1,10-diazatricyclo[6.5.0.0^[2,6]]trideca-2(6),7-dien-10-yl]-3-(hydroxymethyl)pyridin-4-yl)-4-methyl-3-oxopyrazin-2-yl]amino]-2-[(2S)-2-methyl-4-[(2R,4r,6S)-2,6-dimethyloxan-4-yl]piperazin-1-yl]phenyl)prop-2-enamide]
0.34 | 0.06 | Irreversible/covalent inhibition | C=CC(=O)Nc1cc(Nc2nc(-c3ccnc(N4CCn5c(cc6c5CC(C)(C)C6)C4=O)c3CO)cn(C)c2=O)ccc1N1CCN(C2CCOC2)C[C@@H]1C (stereo partly drawn) [Example 39, N-(5-[[6-(2-[4,4-dimethyl-9-oxo-1,10-diazatricyclo[6.4.0.0^[2,6]]dodeca-2(6),7-dien-10-yl]-3-(hydroxymethyl)pyridin-4-yl)-4-methyl-3-oxopyrazin-2-yl]amino]-2-[(2S)-2-methyl-4-(oxolan-3-yl)piperazin-1-yl]phenyl)prop-2-enamide]
